The subject of data set [1] is Salmonella typhimurium. Nature of the data set: Mutagenicity in Salmonella typhimurium in presence of liver S9 fraction by non-GLP Ames test. It counts as toxicity, organism-based. The settings on record: salmonella enterica subsp. enterica serovar typhimurium. (In general: The Ames test uses bacterial strains that need an amino acid and regain growth without it when mutated back.)

The nature of data set [2]: Half life in rat at 20 mg/kg, po administered as single dose. Type of data set: ADME, organism-based. Further details: dose 20 mg/kg, route oral. The settings on record: in vivo.
A short description of data set [3]: AUC (0 to infinity) in rat at 20 mg/kg, po administered as single dose. Type of data set: ADME, organism-based. Further details: time infinity, dose 20 mg/kg, route oral. The conditions noted are these: plasma.
A short description of data set [4]: Cmax in rat at 20 mg/kg, po administered as single dose. It counts as ADME, organism-based. Further details: dose 20 mg/kg, route oral. The settings on record: in vivo.
The target of data set [5] is T1, Progesterone receptor (Homo sapiens, UniProt P06401).
T1 sequence (P06401 whole entry): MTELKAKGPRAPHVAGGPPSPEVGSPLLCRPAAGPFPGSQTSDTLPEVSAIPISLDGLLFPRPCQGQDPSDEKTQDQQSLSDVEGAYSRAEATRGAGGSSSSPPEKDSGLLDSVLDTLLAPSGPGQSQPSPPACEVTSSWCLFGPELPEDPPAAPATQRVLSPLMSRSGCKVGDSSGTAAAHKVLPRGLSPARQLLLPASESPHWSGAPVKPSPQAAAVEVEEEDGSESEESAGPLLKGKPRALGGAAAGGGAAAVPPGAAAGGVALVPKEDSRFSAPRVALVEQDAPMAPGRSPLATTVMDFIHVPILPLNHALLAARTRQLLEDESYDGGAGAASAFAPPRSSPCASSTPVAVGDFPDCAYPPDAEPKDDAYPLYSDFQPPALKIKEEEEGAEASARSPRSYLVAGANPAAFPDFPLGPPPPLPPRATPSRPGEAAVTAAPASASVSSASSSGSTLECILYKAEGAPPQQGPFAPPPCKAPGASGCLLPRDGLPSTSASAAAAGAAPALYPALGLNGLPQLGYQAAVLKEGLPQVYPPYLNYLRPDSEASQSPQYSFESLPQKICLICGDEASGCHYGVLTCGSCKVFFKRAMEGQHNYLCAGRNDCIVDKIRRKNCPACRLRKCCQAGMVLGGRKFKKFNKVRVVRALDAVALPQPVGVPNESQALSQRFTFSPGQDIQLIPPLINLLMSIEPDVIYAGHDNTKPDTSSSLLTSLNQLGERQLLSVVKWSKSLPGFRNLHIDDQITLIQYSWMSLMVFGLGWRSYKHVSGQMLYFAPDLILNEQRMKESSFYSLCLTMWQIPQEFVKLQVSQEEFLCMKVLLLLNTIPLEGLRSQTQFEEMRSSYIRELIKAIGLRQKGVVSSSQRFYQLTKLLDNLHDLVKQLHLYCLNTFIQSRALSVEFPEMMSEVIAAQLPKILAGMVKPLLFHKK
The data set can be described thus: Antagonist activity against progesterone receptor in human T47D cells by alkaline phosphatase assay. Type of data set: functional, cell-based.

Data set [6] concerns Salmonella typhimurium. Nature of the data set: Mutagenicity in Salmonella typhimurium in absence of liver S9 fraction by non-GLP Ames test. Type of data set: toxicity, organism-based. The settings on record: salmonella enterica subsp. enterica serovar typhimurium.
Data set [7] addresses T2, Progesterone receptor (Homo sapiens) (UniProt P06401).
T2 sequence (whole entry): T1 sequence (P06401 whole entry)
The data set can be described thus: Antagonist activity against progesterone receptor in human T47D cells at 3 uM by alkaline phosphatase assay. It counts as functional, cell-based.

Here are results for 13 compounds from ChEMBL document CHEMBL2203135, “Novel progesterone receptor modulators: 4-aryl-phenylsulfonamides” (Bioorg Med Chem Lett, 2012).

pIC50: −log10 of the molar value.

The half-life is the time needed for the level to fall by half in the phase considered. Read a high half-life as slow loss. By AUC(0-inf) is commonly meant the area under the concentration-time curve extrapolated to infinity. The low end stands for low exposure, the high end for high exposure. By Cmax is commonly meant the maximum level reached in the sampled fluid or tissue. In general, pIC50 refers to the IC50 on a negative log10 scale, so that one unit is a factor of ten. Read a high pIC50 as a small IC50. Broadly, the inhibition is how much of the control response was suppressed.

As to `Cn1c(C#N)ccc1-c1ccc(N)cc1`, the Activity entry in data set [1] is listed as “Toxic”. The half-life in data set [2] is 2.5 h. This compound also came in with an AUC(0-inf) in data set [3] of 3080 ng·h/mL. The peak level in data set [4] (Cmax) was 3.2 µM.
Turning to `CCS(=O)(=O)Nc1ccc(-c2ccc(C#N)n2C)c(F)c1`, the pIC50 in data set [5] is 8.22.
In the case of `Cn1c(C#N)ccc1-c1ccc(NS(C)(=O)=O)cc1`, the pIC50 in data set [5] was 8.10.
On to `CCS(=O)(=O)Nc1ccc(-c2ccc(C#N)n2C)c(C(F)(F)F)c1`, for which, in data set [1], the Activity entry was “Non-toxic”. This compound had a negative logarithm of the IC50 (pIC50) in data set [5] of 7.92.
Take `CCS(=O)(=O)Nc1ccc(-c2ccc(C#N)n2C)cc1`: the results for the Activity result in data set [1] and in data set [6] were “Toxic” and “Non-toxic”, respectively. The half-life in data set [2] was 2.5 h. The same compound came in with an AUC(0-inf) in data set [3] of 12300 ng·h/mL. For the same compound, in data set [4], the concentration peaked (Cmax) at 6.7 µM. In data set [5], this compound gave a pIC50 of 8.05.
For the compound `Cn1c(C#N)ccc1-c1ccc(NS(C)(=O)=O)cc1F`, the Activity result in data set [1] and in data set [6] was “Non-toxic” throughout. The pIC50 in data set [5] was 8.10.
As to `CCS(=O)(=O)Nc1ccc(-c2ccc(C#N)n2C)c(C#N)c1`, the pIC50 in data set [5] was 6.89.
`CCS(=O)(=O)Nc1cc(F)c(-c2ccc(C#N)n2C)cc1F`: the pIC50 in data set [5] was 7.24.
Regarding `CC(C)c1ccc(S(=O)(=O)Nc2ccc(-c3ccc(C#N)n3C)cc2)cc1`, in data set [7], the inhibition was found to be 54%.
Regarding `CC(=O)Nc1ccc(-c2ccc(C#N)n2C)cc1`, the half-life in data set [2] was 5 h. Moreover, the AUC(0-inf) in data set [3] turned out to be 1640 ng·h/mL. The Cmax in data set [4] was 0.7 µM. Also, the pIC50 in data set [5] was 7.12.
`Cc1ccc(S(=O)(=O)Nc2ccc(-c3ccc(C#N)n3C)cc2)cc1`: the inhibition in data set [7] was 55%.
On to `Cn1c(C#N)ccc1-c1ccc(NS(C)(=O)=O)c(C#N)c1`, for which the pIC50 in data set [5] was under 5.52.
On the same count and under the same terms, in the case of `CCCS(=O)(=O)Nc1ccc(-c2ccc(C#N)n2C)cc1` it was 8.00.
